Results on five molecules are retold here after patent US20140213513A1 (Sanofi, priority 2012, published 2014).

In series [1] the target is T1, human GLP-1 receptor (hGLP-1 R) (Homo sapiens, UniProt P43220).
T1 construct: expressed in transfected cells
The series is described as follows: cAMP response of HEK-293 cells stably expressing human GLP-1 receptor (HTRF). It counts as cell-based. To be noted: Table 7; cAMP formation. The method in brief: (§1)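 HTRF read-out of cellular cAMP after 30 min compound exposure at room temperature. Accutase-detached cells were suspended at 400000 cells/ml in HBSS buffer containing 20 mM HEPES, 0.1% BSA and 2 mM IBMX phosphodiesterase inhibitor.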

Series [2] has as its target T2, human GIP receptor (hGIP R) (Homo sapiens, UniProt P48546).
T2 construct: expressed in transfected cells
T2 sequence (P48546 22-466): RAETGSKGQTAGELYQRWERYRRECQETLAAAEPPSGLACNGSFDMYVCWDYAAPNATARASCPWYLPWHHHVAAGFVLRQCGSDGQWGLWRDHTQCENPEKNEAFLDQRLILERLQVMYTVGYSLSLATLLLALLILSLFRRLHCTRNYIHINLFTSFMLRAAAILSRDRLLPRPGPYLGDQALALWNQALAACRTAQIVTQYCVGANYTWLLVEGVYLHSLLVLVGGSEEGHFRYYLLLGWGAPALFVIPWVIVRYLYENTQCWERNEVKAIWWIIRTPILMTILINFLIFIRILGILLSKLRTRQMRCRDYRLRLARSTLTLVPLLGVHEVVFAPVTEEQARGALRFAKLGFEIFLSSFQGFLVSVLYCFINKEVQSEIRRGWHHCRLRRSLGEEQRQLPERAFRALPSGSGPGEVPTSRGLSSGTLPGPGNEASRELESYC
The series is described as follows: cAMP response of HEK-293 cells stably expressing human GIP receptor (HTRF). It is filed as cell-based. To be noted: Table 7; cAMP formation. The method in brief: as §1

The target of series [3] is T3, human glucagon receptor (hGLUC R) (Homo sapiens, UniProt P47871).
T3 construct: expressed in transfected cells
T3 sequence (P47871 26-477): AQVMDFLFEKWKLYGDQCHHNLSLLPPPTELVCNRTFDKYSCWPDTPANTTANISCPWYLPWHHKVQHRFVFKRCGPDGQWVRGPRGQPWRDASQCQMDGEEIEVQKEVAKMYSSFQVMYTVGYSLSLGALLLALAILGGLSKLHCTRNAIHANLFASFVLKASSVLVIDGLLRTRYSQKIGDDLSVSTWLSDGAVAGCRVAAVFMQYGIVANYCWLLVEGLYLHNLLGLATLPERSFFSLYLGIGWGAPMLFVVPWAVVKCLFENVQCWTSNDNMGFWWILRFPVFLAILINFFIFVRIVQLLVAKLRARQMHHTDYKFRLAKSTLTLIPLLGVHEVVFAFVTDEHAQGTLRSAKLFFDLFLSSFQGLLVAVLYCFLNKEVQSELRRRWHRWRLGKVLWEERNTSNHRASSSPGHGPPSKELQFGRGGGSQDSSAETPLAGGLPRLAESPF
The series is described as follows: cAMP response of HEK-293 cells stably expressing human glucagon receptor (HTRF). The note with it: Table 7; cAMP formation. It is filed as cell-based. A digest of the protocol:
as §1

Series [4] can be described thus: Solubility testing in buffer (HPLC-UV of supernatant). It is filed as physicochemical.
Setting [5] is: pH 4.5, target concentration 1.0 mg/mL, read-out: Solubility (pH 4.5).
Setting [6] is: pH 7.4, target concentration 1.0 mg/mL, read-out: Solubility (pH 7.4).

≈ marks a conversion by molar mass, not a printed value. Like-named read-outs stand apart in the source and are kept apart here. *1 amine or outer side, *2 acyl side, *3 side chain or, on linkers, in order; H or OH if unused. Where a SMILES comes first, the peptide text is derived from it. Side-chain parts run from the residue outwards. [ ]: non-standard residue; d: D form. The star is where a group is joined. γGlu = O=C(O)[C@H](CCC(=O)[*:2])N[*:1]; Stearoyl = CCCCCCCCCCCCCCCCCC(=O)*; Palmitoyl = CCCCCCCCCCCCCCCC(=O)*; Aib = CC(C)(N)C(=O)O

T1 sequence (P43220 24-463): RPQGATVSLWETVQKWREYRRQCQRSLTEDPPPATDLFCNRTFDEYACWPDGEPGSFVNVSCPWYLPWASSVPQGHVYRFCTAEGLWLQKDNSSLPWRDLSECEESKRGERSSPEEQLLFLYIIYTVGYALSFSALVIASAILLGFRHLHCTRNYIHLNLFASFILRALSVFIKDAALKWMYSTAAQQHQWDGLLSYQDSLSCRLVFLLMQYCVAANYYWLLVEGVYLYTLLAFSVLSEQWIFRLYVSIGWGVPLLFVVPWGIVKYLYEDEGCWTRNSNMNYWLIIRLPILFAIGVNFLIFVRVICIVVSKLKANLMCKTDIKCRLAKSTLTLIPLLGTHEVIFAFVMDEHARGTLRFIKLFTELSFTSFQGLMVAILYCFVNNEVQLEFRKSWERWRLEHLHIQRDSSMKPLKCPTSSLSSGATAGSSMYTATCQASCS

In the case of `CCCCCCCCCCCCCCCC(=O)N[C@@H](CCC(=O)NCCCC[C@H](NC(=O)[C@H](CCC(N)=O)NC(=O)[C@H](CCCCN)NC(=O)[C@H](CO)NC(=O)[C@H](CC(C)C)NC(=O)[C@H](CC(=O)O)NC(=O)[C@H](CO)NC(=O)[C@@H](NC(=O)[C@H](Cc1ccccc1)NC(=O)[C@@H](NC(=O)CNC(=O)[C@H](CCC(=O)O)NC(=O)C(C)(C)NC(=O)[C@@H](N)Cc1ccc(O)cc1)[C@@H](C)O)[C@@H](C)O)C(=O)N[C@@H](CCC(=O)O)C(=O)N[C@@H](CCCCN)C(=O)N[C@@H](CCC(=O)O)C(=O)N[C@@H](C)C(=O)N[C@@H](C)C(=O)NC(C)(C)C(=O)N[C@@H](CCC(=O)O)C(=O)N[C@@H](Cc1ccccc1)C(=O)N[C@H](C(=O)N[C@@H](CCC(=O)O)C(=O)N[C@@H](Cc1c[nH]c2ccccc12)C(=O)N[C@@H](CC(C)C)C(=O)N[C@@H](CCCCN)C(=O)N[C@@H](C)C(=O)NCC(=O)NCC(=O)N1CCC[C@H]1C(=O)N[C@@H](CO)C(=O)N[C@@H](CO)C(=O)NCC(=O)N[C@@H](C)C(=O)N1CCC[C@H]1C(=O)N1CCC[C@H]1C(=O)N1CCC[C@H]1C(=O)N[C@@H](CO)C(N)=O)[C@@H](C)CC)C(=O)O` [SEQ ID NO: 17, Y-Aib-E-G-T-F-T-S-D-L-S-K-Q-K(yE-x53)-E-K-E-A-A-Aib-E-F-I-E-W-L-K-A-G-G-P-S-S-G-A-P-P-P-S-NH2] (H-Y[Aib]EGTFTSDLSKQK([γGlu-Palmitoyl])EKEAA[Aib]EFIEWLKAGGPSSGAPPPS-NH2), the EC50 in series [1] turned out to be 0.0052 nM; in series [2], 0.0083 nM; in series [3] it was 21 nM. Besides, the solubility at 2 h in series [4] (setting [5]) and in series [4] (setting [6]) was over 1000 µg/mL each time.
Take `CCCCCCCCCCCCCCCCCC(=O)N[C@@H](CCC(=O)NCCCC[C@H](NC(=O)[C@H](CCC(N)=O)NC(=O)[C@@H](NC(=O)[C@H](CO)NC(=O)[C@H](CC(C)C)NC(=O)[C@H](CC(=O)O)NC(=O)[C@H](CO)NC(=O)[C@@H](NC(=O)[C@H](Cc1ccccc1)NC(=O)[C@@H](NC(=O)CNC(=O)[C@H](Cc1c[nH]cn1)NC(=O)C(C)(C)NC(=O)[C@@H](N)Cc1ccc(O)cc1)[C@@H](C)O)[C@@H](C)O)[C@@H](C)CC)C(=O)N[C@@H](CCC(=O)O)C(=O)N[C@@H](CCCCN)C(=O)N[C@@H](CCCNC(=N)N)C(=O)N[C@@H](C)C(=O)N[C@@H](C)C(=O)NC(C)(C)C(=O)N[C@@H](CCC(=O)O)C(=O)N[C@@H](Cc1ccccc1)C(=O)N[C@H](C(=O)N[C@@H](CCC(=O)O)C(=O)N[C@@H](Cc1c[nH]c2ccccc12)C(=O)N[C@@H](CC(C)C)C(=O)N[C@@H](CCCCN)C(=O)N[C@@H](CC(N)=O)C(=O)N[C@H](C(=O)NCC(=O)N1CCC[C@H]1C(=O)N[C@@H](CO)C(=O)N[C@@H](CO)C(=O)NCC(=O)N[C@@H](C)C(=O)N1CCC[C@H]1C(=O)N1CCC[C@H]1C(=O)N1CCC[C@H]1C(=O)N[C@@H](CO)C(N)=O)[C@@H](C)O)[C@@H](C)CC)C(=O)O` [SEQ ID NO: 18, Y-Aib-H-G-T-F-T-S-D-L-S-I-Q-K(yE-x70)-E-K-R-A-A-Aib-E-F-I-E-W-L-K-N-T-G-P-S-S-G-A-P-P-P-S-NH2] (H-Y[Aib]HGTFTSDLSIQK([γGlu-Stearoyl])EKRAA[Aib]EFIEWLKNTGPSSGAPPPS-NH2): the values for the half-maximal effective concentration (EC50) in series [1], in series [2] and in series [3] were 0.0183 nM, 0.0095 nM and 0.0095 nM, respectively. Further, the solubility at 2 h in series [4] (setting [5]) is 966 µg/mL (≈ 209 µM); in series [4] (setting [6]), 768 µg/mL (≈ 166 µM).
For the molecule `CCCCCCCCCCCCCCCCCC(=O)N[C@@H](CCC(=O)NCCCC[C@H](NC(=O)[C@H](CCC(N)=O)NC(=O)[C@@H](NC(=O)[C@H](CO)NC(=O)[C@H](CC(C)C)NC(=O)[C@H](CC(=O)O)NC(=O)[C@H](CO)NC(=O)[C@@H](NC(=O)[C@H](Cc1ccccc1)NC(=O)[C@@H](NC(=O)CNC(=O)[C@H](CCC(=O)O)NC(=O)C(C)(C)NC(=O)[C@@H](N)Cc1ccc(O)cc1)[C@@H](C)O)[C@@H](C)O)[C@@H](C)CC)C(=O)N[C@@H](CCC(=O)O)C(=O)N[C@@H](CCC(=O)O)C(=O)N[C@@H](CCC(=O)O)C(=O)N[C@@H](C)C(=O)N[C@H](C(=O)N[C@@H](CCCCN)C(=O)N[C@@H](CC(C)C)C(=O)N[C@@H](Cc1ccccc1)C(=O)N[C@H](C(=O)N[C@@H](CCC(=O)O)C(=O)N[C@@H](Cc1c[nH]c2ccccc12)C(=O)N[C@@H](CC(C)C)C(=O)N[C@@H](CCCCN)C(=O)N[C@@H](C)C(=O)NCC(=O)NCC(=O)N1CCC[C@H]1C(=O)N[C@@H](CO)C(=O)N[C@@H](CO)C(=O)NCC(=O)N[C@@H](C)C(=O)N1CCC[C@H]1C(=O)N1CCC[C@H]1C(=O)N1CCC[C@H]1C(=O)N[C@@H](CO)C(N)=O)[C@@H](C)CC)C(C)C)C(=O)O` [SEQ ID NO: 62, Y-Aib-E-G-T-F-T-S-D-L-S-I-Q-K(yE-x70)-EEEAVKLFIEWLKAGGPSSGAPPPS-NH2] (H-Y[Aib]EGTFTSDLSIQK([γGlu-Stearoyl])EEEAVKLFIEWLKAGGPSSGAPPPS-NH2), the concentration for a half-maximal effect (EC50) in series [1] is 0.0076 nM; in series [2], 0.0067 nM; in series [3] it was over 1000 nM.
Consider `CCCCCCCCCCCCCCCC(=O)N[C@@H](CCC(=O)NCCCC[C@H](NC(=O)[C@H](CCC(N)=O)NC(=O)[C@H](CCCCN)NC(=O)[C@H](CO)NC(=O)[C@H](CC(C)C)NC(=O)[C@H](CC(=O)O)NC(=O)[C@H](CO)NC(=O)[C@@H](NC(=O)[C@H](Cc1ccccc1)NC(=O)[C@@H](NC(=O)CNC(=O)[C@H](CCC(=O)O)NC(=O)C(C)(C)NC(=O)[C@@H](N)Cc1ccc(O)cc1)[C@@H](C)O)[C@@H](C)O)C(=O)N[C@@H](CC(=O)O)C(=O)N[C@@H](CCCCN)C(=O)N[C@@H](CCCNC(=N)N)C(=O)N[C@@H](C)C(=O)N[C@@H](C)C(=O)N[C@@H](CCC(N)=O)C(=O)N[C@@H](CC(=O)O)C(=O)N[C@@H](Cc1ccccc1)C(=O)N[C@H](C(=O)N[C@@H](CCC(=O)O)C(=O)N[C@@H](Cc1c[nH]c2ccccc12)C(=O)N[C@@H](CC(C)C)C(=O)N[C@@H](CCCCN)C(=O)N[C@@H](C)C(=O)NCC(=O)NCC(=O)N1CCC[C@H]1C(=O)N[C@@H](CO)C(=O)N[C@@H](CO)C(=O)NCC(=O)N[C@@H](C)C(=O)N1CCC[C@H]1C(=O)N1CCC[C@H]1C(=O)N1CCC[C@H]1C(=O)N[C@@H](CO)C(N)=O)[C@@H](C)CC)C(=O)O` [SEQ ID NO: 63, Y-Aib-E-G-T-F-T-S-D-L-S-K-Q-K(yE-x53)-DKRAAQDFIEWLKAGGPSSGAPPPS-NH2] (H-Y[Aib]EGTFTSDLSKQK([γGlu-Palmitoyl])DKRAAQDFIEWLKAGGPSSGAPPPS-NH2), for which the EC50 in series [1] was 0.006 nM; in series [2] it was 0.0119 nM; in series [3], 1.67 nM.
Consider `CCCCCCCCCCCCCCCC(=O)N[C@@H](CCC(=O)NCCCC[C@H](NC(=O)[C@H](CCC(N)=O)NC(=O)[C@H](CCCCN)NC(=O)[C@H](CO)NC(=O)[C@H](CC(C)C)NC(=O)[C@H](CC(=O)O)NC(=O)[C@H](CO)NC(=O)[C@@H](NC(=O)[C@H](Cc1ccccc1)NC(=O)[C@@H](NC(=O)CNC(=O)[C@H](CCC(N)=O)NC(=O)C(C)(C)NC(=O)[C@@H](N)Cc1ccc(O)cc1)[C@@H](C)O)[C@@H](C)O)C(=O)N[C@@H](CC(=O)O)C(=O)N[C@@H](CO)C(=O)N[C@@H](CCCNC(=N)N)C(=O)N[C@@H](C)C(=O)N[C@@H](C)C(=O)N[C@@H](CCC(N)=O)C(=O)N[C@@H](CC(=O)O)C(=O)N[C@@H](Cc1ccccc1)C(=O)N[C@H](C(=O)N[C@@H](CCC(=O)O)C(=O)N[C@@H](Cc1c[nH]c2ccccc12)C(=O)N[C@@H](CC(C)C)C(=O)N[C@@H](CCCCN)C(=O)N[C@@H](C)C(=O)NCC(=O)NCC(=O)N1CCC[C@H]1C(=O)N[C@@H](CO)C(=O)N[C@@H](CO)C(=O)NCC(=O)N[C@@H](C)C(=O)N1CCC[C@H]1C(=O)N1CCC[C@H]1C(=O)N1CCC[C@H]1C(=O)N[C@@H](CO)C(N)=O)[C@@H](C)CC)C(=O)O` [SEQ ID NO: 66, Y-Aib-Q-G-T-F-T-S-D-L-S-K-Q-K(yE-x53)-DSRAAQDFIEWLKAGGPSSGAPPPS-NH2] (H-Y[Aib]QGTFTSDLSKQK([γGlu-Palmitoyl])DSRAAQDFIEWLKAGGPSSGAPPPS-NH2), for which the EC50 in series [1] turned out to be 0.0036 nM; in series [2] it was 0.0826 nM; in series [3] it was 0.0052 nM.
